≈ marks a conversion by molar mass, not a printed value.
How the values were obtained:
Format in all cases: functional
[1] = test system: Candida albicans; experiment: Antifungal activity against Candida albicans SC5314 assessed as inhibition of fungal growth incubated for 48 hrs by CLSI based broth microdilution assay
[2] = test system: Nakaseomyces glabratus; experiment: Antifungal activity against Candida glabrata 537 assessed as inhibition of fungal growth incubated for 48 hrs by CLSI based broth microdilution assay
[3] = test system: Candida tropicalis; experiment: Antifungal activity against Candida tropicalis 8915 assessed as inhibition of fungal growth incubated for 48 hrs by CLSI based broth microdilution assay
[4] = test system: Pichia kudriavzevii; experiment: Antifungal activity against Candida krusei 4996 assessed as inhibition of fungal growth incubated for 48 hrs by CLSI based broth microdilution assay
[5] = test system: Cryptococcus neoformans; experiment: Antifungal activity against Cryptococcus neoformans 32609 assessed as inhibition of fungal growth incubated for 72 hrs by CLSI based broth microdilution assay
[6] = test system: Candida parapsilosis; experiment: Antifungal activity against Candida parapsilosis 22019 assessed as inhibition of fungal growth incubated for 48 hrs by CLSI based broth microdilution assay; conditions: Lodderomyces parapsilosis
[7] = test system: Candida albicans; experiment: Antifungal activity against Candida albicans 10231 assessed as inhibition of fungal growth incubated for 48 hrs by CLSI based broth microdilution assay

C[C@@H](OCc1ccn(Cc2c(Cl)cc(Cl)cc2Cl)n1)[C@](O)(Cn1cncn1)c1ccc(F)cc1F
MIC [1]: 0.25 µg/mL (≈ 0.461 µM)
MIC [2]: 1 µg/mL (≈ 1.84 µM)
MIC [3]: 64 µg/mL (≈ 118 µM)
MIC [4]: 8 µg/mL (≈ 14.7 µM)
MIC [5]: ≤ 0.125 µg/mL
MIC [6]: 2 µg/mL (≈ 3.68 µM)
MIC [7]: 0.5 µg/mL (≈ 0.921 µM)

C[C@@H](OCc1ccn(Cc2cccc(Cl)c2)n1)[C@](O)(Cn1cncn1)c1ccc(F)cc1F
MIC [1]: ≤ 0.125 µg/mL
MIC [2]: 0.5 µg/mL (≈ 1.06 µM)
MIC [3]: 0.25 µg/mL (≈ 0.528 µM)
MIC [4]: 4 µg/mL (≈ 8.44 µM)
MIC [5]: 0.5 µg/mL (≈ 1.06 µM)
MIC [6]: 0.5 µg/mL (≈ 1.06 µM)
MIC [7]: ≤ 0.125 µg/mL

C[C@@H](OCc1ccn(Cc2ccccc2Cl)n1)[C@](O)(Cn1cncn1)c1ccc(F)cc1F
MIC [1]: ≤ 0.125 µg/mL
MIC [2]: 0.5 µg/mL (≈ 1.06 µM)
MIC [3]: 32 µg/mL (≈ 67.5 µM)
MIC [4]: 8 µg/mL (≈ 16.9 µM)
MIC [5]: 0.25 µg/mL (≈ 0.528 µM)
MIC [6]: 0.5 µg/mL (≈ 1.06 µM)
MIC [7]: 0.25 µg/mL (≈ 0.528 µM)

C[C@@H](OCc1ccn(Cc2ccc(F)cc2Cl)n1)[C@](O)(Cn1cncn1)c1ccc(F)cc1F
MIC [1]: ≤ 0.125 µg/mL
MIC [2]: 1 µg/mL (≈ 2.03 µM)
MIC [3]: 8 µg/mL (≈ 16.3 µM)
MIC [4]: 4 µg/mL (≈ 8.13 µM)
MIC [5]: 0.25 µg/mL (≈ 0.508 µM)
MIC [6]: 1 µg/mL (≈ 2.03 µM)
MIC [7]: 0.25 µg/mL (≈ 0.508 µM)

C[C@@H](OCc1ccn(Cc2ccc(Cl)cc2Cl)n1)[C@](O)(Cn1cncn1)c1ccc(F)cc1F
MIC [1]: 0.25 µg/mL (≈ 0.492 µM)
MIC [2]: 1 µg/mL (≈ 1.97 µM)
MIC [3]: 32 µg/mL (≈ 62.9 µM)
MIC [4]: 4 µg/mL (≈ 7.87 µM)
MIC [5]: 0.5 µg/mL (≈ 0.984 µM)
MIC [6]: 0.25 µg/mL (≈ 0.492 µM)
MIC [7]: 0.25 µg/mL (≈ 0.492 µM)

C[C@@H](OCc1ccn(Cc2ccc(C(F)(F)F)cc2)n1)[C@](O)(Cn1cncn1)c1ccc(F)cc1F
MIC [1]: 0.25 µg/mL (≈ 0.493 µM)
MIC [2]: 1 µg/mL (≈ 1.97 µM)
MIC [3]: 0.5 µg/mL (≈ 0.985 µM)
MIC [4]: 4 µg/mL (≈ 7.88 µM)
MIC [5]: 0.5 µg/mL (≈ 0.985 µM)
MIC [6]: 0.5 µg/mL (≈ 0.985 µM)
MIC [7]: ≤ 0.125 µg/mL

C[C@@H](OCc1ccn(Cc2cccc(F)c2)n1)[C@](O)(Cn1cncn1)c1ccc(F)cc1F
MIC [1]: ≤ 0.125 µg/mL
MIC [2]: 0.25 µg/mL (≈ 0.547 µM)
MIC [3]: 64 µg/mL (≈ 140 µM)
MIC [4]: 4 µg/mL (≈ 8.74 µM)
MIC [5]: 0.25 µg/mL (≈ 0.547 µM)
MIC [6]: 0.5 µg/mL (≈ 1.09 µM)
MIC [7]: ≤ 0.125 µg/mL

C[C@@H](OCc1ccn(Cc2c(Cl)cccc2Cl)n1)[C@](O)(Cn1cncn1)c1ccc(F)cc1F
MIC [1]: 0.25 µg/mL (≈ 0.492 µM)
MIC [2]: 0.5 µg/mL (≈ 0.984 µM)
MIC [3]: 32 µg/mL (≈ 62.9 µM)
MIC [4]: 8 µg/mL (≈ 15.7 µM)
MIC [5]: 0.25 µg/mL (≈ 0.492 µM)
MIC [6]: 1 µg/mL (≈ 1.97 µM)
MIC [7]: 0.5 µg/mL (≈ 0.984 µM)

C[C@@H](OCc1ccn(Cc2ccc(F)cc2F)n1)[C@](O)(Cn1cncn1)c1ccc(F)cc1F
MIC [1]: ≤ 0.125 µg/mL
MIC [2]: 0.25 µg/mL (≈ 0.526 µM)
MIC [3]: 0.25 µg/mL (≈ 0.526 µM)
MIC [4]: 4 µg/mL (≈ 8.41 µM)
MIC [5]: 0.5 µg/mL (≈ 1.05 µM)
MIC [6]: 0.5 µg/mL (≈ 1.05 µM)
MIC [7]: 0.25 µg/mL (≈ 0.526 µM)

C[C@@H](OCc1ccn(Cc2c(F)cc(F)cc2F)n1)[C@](O)(Cn1cncn1)c1ccc(F)cc1F
MIC [1]: 0.25 µg/mL (≈ 0.507 µM)
MIC [2]: 0.5 µg/mL (≈ 1.01 µM)
MIC [3]: 64 µg/mL (≈ 130 µM)
MIC [4]: 8 µg/mL (≈ 16.2 µM)
MIC [5]: 0.5 µg/mL (≈ 1.01 µM)
MIC [6]: 0.5 µg/mL (≈ 1.01 µM)
MIC [7]: 0.5 µg/mL (≈ 1.01 µM)

C[C@@H](OCc1ccn(Cc2ccc([N+](=O)[O-])cc2)n1)[C@](O)(Cn1cncn1)c1ccc(F)cc1F
MIC [1]: ≤ 0.125 µg/mL
MIC [2]: ≤ 0.125 µg/mL
MIC [3]: 0.5 µg/mL (≈ 1.03 µM)
MIC [4]: 4 µg/mL (≈ 8.26 µM)
MIC [5]: 0.5 µg/mL (≈ 1.03 µM)
MIC [6]: 0.25 µg/mL (≈ 0.516 µM)
MIC [7]: ≤ 0.125 µg/mL

C[C@@H](OCc1ccn(Cc2cccc(Cl)c2Cl)n1)[C@](O)(Cn1cncn1)c1ccc(F)cc1F
MIC [1]: 0.25 µg/mL (≈ 0.492 µM)
MIC [2]: 0.5 µg/mL (≈ 0.984 µM)
MIC [3]: 16 µg/mL (≈ 31.5 µM)
MIC [4]: 8 µg/mL (≈ 15.7 µM)
MIC [5]: 0.5 µg/mL (≈ 0.984 µM)
MIC [6]: 0.25 µg/mL (≈ 0.492 µM)
MIC [7]: ≤ 0.125 µg/mL

Cc1ccccc1Cn1ccc(CO[C@H](C)[C@](O)(Cn2cncn2)c2ccc(F)cc2F)n1
MIC [1]: ≤ 0.125 µg/mL
MIC [2]: 1 µg/mL (≈ 2.21 µM)
MIC [3]: > 64 µg/mL
MIC [4]: 8 µg/mL (≈ 17.6 µM)
MIC [5]: 0.5 µg/mL (≈ 1.1 µM)
MIC [6]: 0.5 µg/mL (≈ 1.1 µM)
MIC [7]: 0.25 µg/mL (≈ 0.551 µM)

C[C@@H](OCc1ccn(Cc2ccccc2)n1)[C@](O)(Cn1cncn1)c1ccc(F)cc1F
MIC [1]: 0.5 µg/mL (≈ 1.14 µM)
MIC [2]: 0.25 µg/mL (≈ 0.569 µM)
MIC [3]: 32 µg/mL (≈ 72.8 µM)
MIC [4]: 4 µg/mL (≈ 9.1 µM)
MIC [5]: 0.25 µg/mL (≈ 0.569 µM)
MIC [6]: 0.5 µg/mL (≈ 1.14 µM)
MIC [7]: 0.5 µg/mL (≈ 1.14 µM)

C[C@@H](OCc1ccn(Cc2c(F)cccc2F)n1)[C@](O)(Cn1cncn1)c1ccc(F)cc1F
MIC [1]: ≤ 0.125 µg/mL
MIC [2]: 0.5 µg/mL (≈ 1.05 µM)
MIC [3]: 0.25 µg/mL (≈ 0.526 µM)
MIC [4]: 16 µg/mL (≈ 33.7 µM)
MIC [5]: 0.5 µg/mL (≈ 1.05 µM)
MIC [6]: 0.5 µg/mL (≈ 1.05 µM)
MIC [7]: 0.5 µg/mL (≈ 1.05 µM)

Source: ChEMBL document CHEMBL5579851, “Synthesis and antifungal evaluation of novel triazole derivatives bearing a pyrazole-methoxyl moiety” (Eur J Med Chem, 2024)
